{"source": "paper PMC5679629", "about": "“Flavin-containing monooxygenase 3 (FMO3) role in busulphan metabolic pathway” (PLoS ONE, 2017)", "key": {"[1]": {"tested_on": "pooled human liver microsomes (HLM)", "assay": "THT disappearance on incubation with pooled human liver microsomes, with heat-inactivation of FMO3 or carbon monoxide inactivation of CYPs", "format": "in vitro ADME", "experimental": "THT (Sigma-Aldrich, Stockholm, Sweden) was received as a liquid solution and stock solutions were prepared daily and diluted in 50mM potassium phosphate buffer pH 7.4.\nLinearity of the reactions with time, enzyme and THT concentrations was determined before measuring apparent enzyme kinetic constants; pooled human liver microsomes (HLM) (Cypex, Dundee, UK) were incubated at different enzyme concentrations with a range of THT concentrations (10–500μM).\nTime curves were performed by incubating microsomes in 50mM potassium phosphate buffer (pH 7.4) in a total volume of 200μL. The reaction was started by the addition of NADPH (Sigma-Aldrich, St. Louis, USA) to a final concentration of 1mM and terminated by adding one volume of ice cold dicholormethane (Fluka, Seeze, Germany).\nThe relative contribution of CYPs and FMO3 in the metabolism of THT was studied by heat-inactivation of FMO3 in some incubations and, in other incubations, CYP enzymes in HLM were inactivated by carbon monoxide (AGA Gas, Enköping, Sweden) bubbling.\n(§1) Incubations were performed in triplicate and negative controls (excluding NADPH, microsomes, THT or by terminating the incubations before the addition of NADPH) were run in parallel.\nTo measure THT and the secondary metabolite, sulfolane, the reactions were terminated by adding dichloromethane. Samples (180μL) were added to 10μM nicotine (20μL, Merck, Hoherbrunn, Germany), used as an internal standard, before extraction. The matrix was extracted by liquid-liquid extraction with dichloromethane (equal volumes, 200μL) after 30 sec of high speed vortexing. After extraction and centrifugation at 16000 g for 10 min, the organic phase was transferred into GC-MS tubes. […] Samples (180μL) were added to 10 μM of 3-methylsulfolane (20μL, TCI, Tokyo, Japan), used as an internal standard. […]\n(§2) Concentrations of THT and its metabolites were measured using GC-MS [18] after validation for use with microsomal incubations according to the international guidelines."}, "[2]": {"assay": "Busulphan and THT plasma kinetics in a patient treated concomitantly with voriconazole", "format": "in vivo, human", "conditions": "Bu 2mg/kg b.i.d. with concomitant voriconazole", "experimental": "In order to confirm the contribution of FMO3 to human Bu kinetics, blood samples were collected (routinely) from a patient who underwent stem cell transplantation and was conditioned according to the hospital transplantation protocol i.e. high dose of Bu (2mg/kg b.i.d.) for four days followed with two days of cyclophosphamide (60mg/kg). […] Voriconazole was administered, according to the hospital clinical protocol, for the treatment of an acute fungal infection.\nSamples were taken for therapeutic drug monitoring (TDM) at several time points after the first, third and fifth doses. Blood was collected into EDTA vacutainer tubes, plasma was separated by centrifugation at 1200 g and stored at -20°C until analysis of Bu and THT [18]."}, "[3]": {"assay": "Busulphan kinetics in mice (alone, after PTU pretreatment, or with high-dose THT)", "conditions": "mice injected with Bu and PTU", "protocol": "Male C57BL/6N mice (6–8 weeks old) were purchased from Charles River (Cologne, Germany). The mice were allowed to acclimatize to the surroundings for 2 weeks with a 12h dark/12h light cycle and randomized for treatment. Standard laboratory chow and water ad libitum was introduced.\nTo study Bu and THT kinetics, Bu (Sigma-Aldrich, Steinheim, Germany) was administered i.p. (25mg/kg or 100μmol/kg) as a 2mM solution in DMSO (Sigma-Aldrich, Stockholm, Sweden) [21]. THT was also prepared as a 2mM solution in DMSO and the dose given was equimolar to the Bu treatment (i.e. 100μmol/kg or 8.8 mg/kg). Upon injection, samples were diluted with physiological NaCl solution to a final DMSO concentration of 10% in the dosing solution. At the appropriate time points (10min, 30min, 1h, 2h, 4h, 6h and 8h), mice (three mice at each time point) were anesthetized using 2% isoflurane and the blood samples were collected by heart puncture. Mice were euthanized by cervical dislocation. Plasma was separated and stored at -20°C.\nPTU (3mg/kg) was dissolved in DMSO and diluted with physiological NaCl solution and then injected into the mice once daily followed by Bu or THT injections on the 4th day. The mice were euthanized and plasma samples prepared as in the previous experiment.\nTo detect the effect of high THT concentrations on Bu metabolism, a third group of mice was injected with both Bu (100μmol/kg) and a high dose of THT (17.6mg/kg or 200μmol/kg) and samples prepared as described previously. All experiments including negative controls (mice injected with 10% DMSO in NaCl solution) and mice injected with PTU alone were performed in triplicates.\nTo quantify Bu, samples were extracted according to the method reported previously by Hassan et al. [24]. Briefly, 500 μL of plasma were diluted with 500 μL of water. Fifty microliters of the internal standard (1,5-bis(methanesulfonoxy)pentane; 38.5 μM) were added, followed by the addition of 1 mL of sodium iodide (8M, Merck, Darmstadt, Germany) and 400μL of n-heptane (Merck, Darmstadt, Germany). The tubes were placed under magnetic stirring in a water bath (70°C) for 45 min. During the reaction, busulphan and 1,5-bis(methanesulfonoxy)pentane were converted to 1,4-diiodobutane and 1,5-diiodopentane respectively and subsequently extracted with n-heptane [25]. The conversion of busulphan and 1,5-bis(methanesulfonoxy)pentane to 1,4-diiodobutane and 1,5-diiodopentane was over 90% [24]. The organic phase was analyzed by GC-MS [18]. THT was quantified as described previously and the method was validated for use with mouse plasma before measuring both Bu and THT [19, 20].\nKinetic parameters from in vivo studies were estimated using WinNonLin software (standard edition, version 2.0), while Microsoft Excel and SigmaPlot software (version 12.5, Systat software, Inc.) were utilized for in vitro kinetics."}, "[4]": {"assay": "THT kinetics in mice (alone or after PTU pretreatment)", "format": "in vivo, Male C57BL/6N mice", "conditions": "THT-treated mice (8.8mg/kg i.p.) pretreated with PTU 3mg/kg i.p. for 3 days", "experimental": "Standard laboratory chow and water ad libitum was introduced.\nTHT was also prepared as a 2mM solution in DMSO and the dose given was equimolar to the Bu treatment (i.e. 100μmol/kg or 8.8 mg/kg). […] At the appropriate time points (10min, 30min, 1h, 2h, 4h, 6h and 8h), mice (three mice at each time point) were anesthetized using 2% isoflurane and the blood samples were collected by heart puncture. Mice were euthanized by cervical dislocation. Plasma was separated and stored at -20°C.\nA similar experiment was performed in a second group of mice, after 3 days of i.p. injections with the FMO3-inhibitor, Phenylthiourea (PTU, Sigma-Aldrich, Stockholm, Sweden, S1 Fig). PTU (3mg/kg) was dissolved in DMSO and diluted with physiological NaCl solution and then injected into the mice once daily followed by Bu or THT injections on the 4th day.\nBriefly, 500 μL of plasma were diluted with 500 μL of water. Fifty microliters of the internal standard (1,5-bis(methanesulfonoxy)pentane; 38.5 μM) were added, followed by the addition of 1 mL of sodium iodide (8M, Merck, Darmstadt, Germany) and 400μL of n-heptane (Merck, Darmstadt, Germany). […] The organic phase was analyzed by GC-MS [18]. THT was quantified as described previously and the method was validated for use with mouse plasma before measuring both Bu and THT [19, 20]."}, "CYP1A1": {"target": "T1, CYP1A1 (Homo sapiens, UniProt P04798)", "T1 construct": "purchased BD Biosciences; host or cells: baculovirus infected insect cells", "T1 sequence (P04798 1-512)": "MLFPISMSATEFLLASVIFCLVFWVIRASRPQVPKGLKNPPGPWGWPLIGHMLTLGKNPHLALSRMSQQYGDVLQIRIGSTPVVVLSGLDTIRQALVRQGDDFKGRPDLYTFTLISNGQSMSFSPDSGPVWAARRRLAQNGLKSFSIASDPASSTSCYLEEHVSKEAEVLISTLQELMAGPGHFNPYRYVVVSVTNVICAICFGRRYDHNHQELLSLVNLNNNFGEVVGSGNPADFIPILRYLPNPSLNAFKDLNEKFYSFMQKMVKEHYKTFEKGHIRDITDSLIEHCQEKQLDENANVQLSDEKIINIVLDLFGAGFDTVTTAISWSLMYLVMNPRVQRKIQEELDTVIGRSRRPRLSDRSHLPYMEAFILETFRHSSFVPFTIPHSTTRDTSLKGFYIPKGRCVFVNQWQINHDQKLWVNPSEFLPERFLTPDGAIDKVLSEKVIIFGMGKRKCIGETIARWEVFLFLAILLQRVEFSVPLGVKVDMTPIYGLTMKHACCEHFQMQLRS", "assay": "THT disappearance with recombinant cDNA-expressed enzyme microsomes", "format": "in vitro ADME", "conditions": "25μM THT, 35pmol CYP/mL", "experimental": "To identify the enzymes involved in Bu metabolism, 11 microsomal batches (BD Biosciences, Stockholm, Sweden), each containing a separate cDNA-expressed enzyme, were incubated with 25μM THT. The microsomes contained FMO3, CYP1A1, CYP1A2, CYP2B6, CYP2C8, CYP2C9, CYP2C19, CYP2D6, CYP2E1, CYP3A4 or CYP4A11. Time curves (0, 5, 15, 30 and 60min) were performed at a concentration of 0.35mg protein /mL for FMO3 and 35pmol CYP/mL for the CYP enzymes. The recombinant enzymes were produced from human cDNA expressing each of them using baculovirus expression system. Baculovirus infected insect cells were used to prepare these microsomes.\nas §1\nTo measure THT and the secondary metabolite, sulfolane, the reactions were terminated by adding dichloromethane. Samples (180μL) were added to 10μM nicotine (20μL, Merck, Hoherbrunn, Germany), used as an internal standard, before extraction. The matrix was extracted by liquid-liquid extraction with dichloromethane (equal volumes, 200μL) after 30 sec of high speed vortexing. After extraction and centrifugation at 16000 g for 10 min, the organic phase was transferred into GC-MS tubes. […] Samples (180μL) were added to 10 μM of 3-methylsulfolane (20μL, TCI, Tokyo, Japan), used as an internal standard. The matrix was lyophilized (< 1 mbar at 40°C under N2 stream) to dryness, the residue was dissolved in 10 μL water and 200 μL of ethyl acetate was added for extraction. Samples were vortexed for 30 sec at high speed and centrifuged at 16000 g for 10 min. The organic phase was transferred to GC-MS tubes.\nas §2"}}, "data": [{"smiles": "C1CCSC1", "note": "[THT, tetrahydrothiophene]", "values": [{"measurement": "THT disappearance on incubation with HLM", "setting": "[1]", "value": "rapid THT disappearance"}, {"measurement": "reduction of THT disappearance by CYP inhibition by carbon monoxide", "setting": "[1]", "value": 9, "unit": "%"}, {"measurement": "reduction of THT disappearance by inactivation of FMO3 (heat treatment)", "setting": "[1]; within 60 min", "value": 44, "unit": "%"}, {"measurement": "THT concentrations versus Bu alone", "setting": "[2]", "value": "higher concentrations than with Bu alone"}, {"measurement": "time at which THT was detected after the first dose of Bu", "setting": "[2]", "value": 1, "unit": "h"}, {"measurement": "THT concentrations versus Bu alone", "setting": "[3]", "value": "significantly (P<0.05, t-test) increased"}, {"measurement": "THT concentrations versus THT only", "setting": "[4]", "value": "significantly (P<0.05, t-test) higher"}, {"measurement": "v0", "setting": "CYP1A1", "value": 1.68, "unit": "nmol/min/mL"}, {"measurement": "v0/CYP", "setting": "CYP1A1", "value": 0.05, "unit": "nmol/min/pmol CYP"}]}]}
